Results: ChEMBL document CHEMBL1137219, “Carbonic anhydrase inhibitors: the first on-resin screening of a 4-sulfamoylphenylthiourea library” (J Med Chem, 2004)

Assays:
[1] = molecular target: Carbonic anhydrase 2 (Homo sapiens, UniProt P00918)
Description: Inhibitory activity against human Carbonic anhydrase II

[2] = molecular target: Carbonic anhydrase 1 (Homo sapiens, UniProt P00915)
Chain of Carbonic anhydrase 1 (P00915 whole entry): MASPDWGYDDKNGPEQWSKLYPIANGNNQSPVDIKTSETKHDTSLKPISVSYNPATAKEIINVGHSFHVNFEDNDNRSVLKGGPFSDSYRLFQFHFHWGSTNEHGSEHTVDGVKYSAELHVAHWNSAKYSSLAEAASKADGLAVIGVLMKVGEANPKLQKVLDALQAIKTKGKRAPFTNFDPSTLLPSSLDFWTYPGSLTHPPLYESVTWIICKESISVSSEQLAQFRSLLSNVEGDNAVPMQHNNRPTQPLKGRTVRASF
Description: Inhibitory activity against human Carbonic anhydrase I

CC[C@H](C)[C@H](/N=C(\S)Nc1ccc(S(N)(=O)=O)cc1)C(=O)OCC(=O)NC
Ki [1]: 5 nM | Ki [2]: 25 nM

NS(=O)(=O)c1ccc(NC(=S)N[C@@H](Cc2c[nH]c3ccccc23)C(=O)O)cc1
Ki [1]: 11 nM | Ki [2]: 47 nM

CC(C)[C@H](NC(=S)Nc1ccc(S(N)(=O)=O)cc1)C(=O)O
Ki [1]: 5 nM | Ki [2]: 23 nM

CNC(=O)COC(=O)[C@H](Cc1ccccc1)NC(=S)Nc1ccc(S(N)(=O)=O)cc1
Ki [1]: 8 nM | Ki [2]: 42 nM

CNC(=O)COc1ccc(COC(=O)[C@H](C)NC(=S)Nc2ccc(S(N)(=O)=O)cc2)cc1
Ki [1]: 16 nM | Ki [2]: 58 nM

CC(C)C[C@H](NC(=S)Nc1ccc(S(N)(=O)=O)cc1)C(=O)O
Ki [1]: 5 nM | Ki [2]: 21 nM

NS(=O)(=O)c1ccc(NC(=S)N2CCC[C@H]2C(=O)O)cc1
Ki [1]: 25 nM | Ki [2]: 110 nM

C[C@H](NC(=S)Nc1ccc(S(N)(=O)=O)cc1)C(=O)O
Ki [1]: 12 nM | Ki [2]: 54 nM

CNC(=O)COC(=O)[C@@H]1CCCN1/C(S)=N\c1ccc(S(N)(=O)=O)cc1
Ki [1]: 46 nM | Ki [2]: 197 nM

CNC(=O)COC(=O)[C@H](Cc1c[nH]c2ccccc12)NC(=S)Nc1ccc(S(N)(=O)=O)cc1
Ki [1]: 20 nM | Ki [2]: 64 nM

CC[C@H](C)[C@H](NC(=S)Nc1ccc(S(N)(=O)=O)cc1)C(=O)O
Ki [1]: 4 nM | Ki [2]: 22 nM

NC(=O)C[C@H](/N=C(\S)Nc1ccc(S(N)(=O)=O)cc1)C(=O)O
Ki [1]: 6 nM | Ki [2]: 27 nM

CNC(=O)COC(=O)[C@H](CC(C)C)/N=C(\S)Nc1ccc(S(N)(=O)=O)cc1
Ki [1]: 7 nM | Ki [2]: 23 nM

CNC(=O)COC(=O)[C@@H](/N=C(\S)Nc1ccc(S(N)(=O)=O)cc1)C(C)C
Ki [1]: 5 nM | Ki [2]: 31 nM

CNC(=O)COC(=O)[C@H](CCC(N)=O)/N=C(\S)Nc1ccc(S(N)(=O)=O)cc1
Ki [1]: 11 nM | Ki [2]: 53 nM

NS(=O)(=O)c1ccc(N/C(S)=N/[C@@H](Cc2ccccc2)C(=O)O)cc1
Ki [1]: 6 nM | Ki [2]: 30 nM

CSCC[C@H](/N=C(\S)Nc1ccc(S(N)(=O)=O)cc1)C(=O)O
Ki [1]: 4 nM | Ki [2]: 27 nM

CNC(=O)COC(=O)[C@H](CCSC)NC(=S)Nc1ccc(S(N)(=O)=O)cc1
Ki [1]: 5 nM | Ki [2]: 31 nM

CNC(=O)COC(=O)[C@H](CC(N)=O)/N=C(\S)Nc1ccc(S(N)(=O)=O)cc1
Ki [1]: 4 nM | Ki [2]: 29 nM

NC(=O)CC[C@H](NC(=S)Nc1ccc(S(N)(=O)=O)cc1)C(=O)O
Ki [1]: 9 nM | Ki [2]: 40 nM
